The test system of experiment [1] is 5× FAD mice. The experiment is described as follows: Tau phosphorylation (AT180 immunohistochemistry) in Alzheimer's disease animal model. The experiment is classed as in vivo. The following applies: 20 mg/kg i.p. every day for 2 weeks, vs vehicle. The procedure:
2 weeks later, immunohistochemistry was performed using AT180, one of Tau phosphorylation antibodies, and as a result confocal microscope images were obtained. Quantitative analysis with the images was performed using image j software.

For experiment [2], the system named is 5× FAD mice. The experiment is described as follows: Y-maze behavioral test, short term cognitive function. The experiment is classed as in vivo. The following applies: 20 mg/kg i.p. every day for 2 weeks, vs non-treated group. How it is done:
Then, the mice were placed in Y-maze composed of three arms abutting 120°, and each arm was lifted sequentially for five minutes to calculate the number of alternation triplets to see how well the mice remembered where they visited.
The equipment used for Y-maze test is composed of three arms. The length of each arm was 42 cm, the width thereof was 3 cm and the height was 12 cm. The angle of contact between the three arms is 120°. All experimental devices were made of black polyvinyl plastic. Each arm was assigned with A, B and C. A test mouse was carefully located in one arm and let move freely for 8 minutes. Then, the arm which the test mouse entered was recorded. At this time, the ‘enter’ means the case when the mouse tail was completely in. If the mouse entered an arm where it had already visited, the case was also recorded. If the mouse entered three different arms one by one (actual alternation), one point was given. Alternation behavior was defined by that the mouse entered three different arms stepwise, which was calculated by the following equation. […] [alternation behavior (%)=actual alternation/*maximum alternation×100]
*maximum alternation: total entries−2

The next experiment concerns mouse pancreatic β-cell. The experiment is described as follows: mouse pancreatic β-cell proliferation (Ki-67/insulin staining). The experiment is classed as cell-based. The procedure:
It is known that when human β-cells are treated with harmine that inhibits DYRK1A, the proliferation of β-cells is promoted by increasing the transcription factor activity by inhibiting the phosphorylation of NFAT known as a phosphorylation substrate of DYRK1A.
Particularly, pancreatic Langerhans islet tissues were extracted from the mouse at 8 weeks old, followed by culture in RPMI1640 medium supplemented with 10% FCS (fetal calves serum), 5.5 mM glucose and 1% penicillin-streptomycin for 24 hours.
Next, in order to separate β-cells as single cells from the Langerhans islet, cells were washed twice with PBS, followed by centrifugation. The collected cells were left in the medium supplemented with 1 mg/ml of trypsin for 10 minutes at 37° C. The cells were shaken using a pipette every 10 seconds for 5 minutes. Trypsin reaction was terminated by adding RPMI1640 containing 10% FCS (fetal calves serum), 5.5 mM glucose and 1% penicillin-streptomycin, followed by centrifugation to collect single cells.
Then, the single cells were loaded on the laminin-coated cover glass and stabilized for 24 hours. The cells were cultured in the medium containing the compound of the present invention for 72 hours. […] The cells double-stained with Ki-67/insulin were counted under Olympus F-1000 confocal fluorescence microscope to investigate cell proliferation.

The test system of experiment [3] is 5× FAD mice. Put plainly: novel object recognition test, long term cognitive function. The experiment is classed as in vivo. As to conditions: 20 mg/kg i.p. every day for 2 weeks, vs non-treated group. How it is done: Novel object recognition test is an experiment to test the memory of perception of an object. Mice were let to see two identical objects. After a certain period of time had passed (several hours˜a week), the mice were let to see a novel object together with the object previously presented. Then, how much those mice were interested in the novel object and studied it was evaluated, leading to the evaluation of long term memory of the previous object.
Two objects which were the same in the shape and in the size (F, F) were placed in a specific corner of the open field box (42×42×42 cm) made that the outside is not invisible from the inside, and a test mouse was started from the center of the box. Then, the number and time of the test mouse touching those two objects were recorded for 5 minutes (Acquisition). 24 hours later, one of those two objects was replaced with a new one (F, N). The number and time of access to the original object (F) and the new object (N) were recorded and digitized (Discrimination). Preference for the object (p) was calculated by (time to approach to a certain object)/(total time to approach to two objects). FIG. 10(a) presents the schematic diagram of novel object recognition test, and FIG. 10(b) presents the calculation results.

The target of a further experiment is CLK2 (Homo sapiens (Human), UniProt P49760). The experiment is described as follows: scanMAX Kinase assay panel. The experiment is classed as binding. As to conditions: read-out: % control. The method in brief: (§1)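 Measurements came from scanMAX kinase selectivity profiling. Each value was normalised by subtracting the positive control and dividing by the span between the DMSO vehicle and the positive control, then multiplied by 100.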
Chain of CLK2 (P49760 whole entry): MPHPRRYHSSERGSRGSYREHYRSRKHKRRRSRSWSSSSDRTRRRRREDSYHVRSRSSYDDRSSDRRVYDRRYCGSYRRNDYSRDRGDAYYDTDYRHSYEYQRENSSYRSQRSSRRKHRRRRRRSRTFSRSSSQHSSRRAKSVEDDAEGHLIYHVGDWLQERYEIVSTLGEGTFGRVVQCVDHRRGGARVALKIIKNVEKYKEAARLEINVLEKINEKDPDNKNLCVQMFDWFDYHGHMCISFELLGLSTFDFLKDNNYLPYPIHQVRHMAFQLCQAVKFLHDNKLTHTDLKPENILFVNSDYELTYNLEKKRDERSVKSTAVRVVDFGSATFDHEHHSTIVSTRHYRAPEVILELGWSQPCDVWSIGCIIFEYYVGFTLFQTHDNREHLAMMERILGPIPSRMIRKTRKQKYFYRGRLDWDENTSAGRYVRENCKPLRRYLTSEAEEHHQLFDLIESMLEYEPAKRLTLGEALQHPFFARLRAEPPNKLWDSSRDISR

A further experiment deals with DYRK1B (Homo sapiens (Human), UniProt Q9Y463). Put plainly: scanMAX Kinase assay panel. The experiment is classed as binding. As to conditions: read-out: % control. An outline of the steps:
as §1

For the next experiment, the target named is CDK5 (Homo sapiens (Human), UniProt Q00535). Put plainly: scanMAX Kinase assay panel. The experiment is classed as binding. As to conditions: read-out: % control. An outline of the steps: as §1
Chain of CDK5 (Q00535 whole entry): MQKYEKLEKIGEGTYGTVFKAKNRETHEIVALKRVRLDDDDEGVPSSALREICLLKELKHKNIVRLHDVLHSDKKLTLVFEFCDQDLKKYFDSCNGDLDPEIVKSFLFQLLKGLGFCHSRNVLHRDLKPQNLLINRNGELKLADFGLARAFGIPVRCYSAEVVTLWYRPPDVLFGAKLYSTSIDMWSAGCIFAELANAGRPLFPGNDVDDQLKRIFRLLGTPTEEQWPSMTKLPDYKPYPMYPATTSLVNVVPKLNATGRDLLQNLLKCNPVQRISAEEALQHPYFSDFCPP
The next experiment deals with CLK1 (Homo sapiens (Human), UniProt P49759). The experiment is described as follows: scanMAX Kinase assay panel. As to conditions: read-out: % control. The experiment is classed as binding. The method in brief:
as §1

The target in the next experiment is GSK3B (Homo sapiens (Human), UniProt P49841). The experiment is described as follows: scanMAX Kinase assay panel. The experiment is classed as binding. As to conditions: read-out: % control. The method in brief: as §1
Chain of GSK3B (P49841 whole entry): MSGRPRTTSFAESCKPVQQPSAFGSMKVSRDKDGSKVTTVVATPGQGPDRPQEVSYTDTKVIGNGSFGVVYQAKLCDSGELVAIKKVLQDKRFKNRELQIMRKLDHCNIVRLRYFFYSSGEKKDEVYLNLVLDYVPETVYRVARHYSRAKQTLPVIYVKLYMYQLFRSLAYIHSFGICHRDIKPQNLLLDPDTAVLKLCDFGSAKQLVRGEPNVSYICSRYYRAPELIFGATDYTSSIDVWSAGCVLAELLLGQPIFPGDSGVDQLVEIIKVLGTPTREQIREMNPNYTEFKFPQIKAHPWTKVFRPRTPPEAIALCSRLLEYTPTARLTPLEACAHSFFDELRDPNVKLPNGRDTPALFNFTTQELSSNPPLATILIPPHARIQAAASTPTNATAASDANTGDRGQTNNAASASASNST
The next experiment has as its target CSNK1E (Homo sapiens (Human), UniProt P49674). Put plainly: scanMAX Kinase assay panel. The experiment is classed as binding. As to conditions: read-out: % control. The method in brief:
as §1

Another experiment has as its target DYRK2 (Homo sapiens (Human), UniProt Q92630). Put plainly: scanMAX Kinase assay panel. The experiment is classed as binding. As to conditions: read-out: % control. An outline of the steps:
as §1

For another experiment, the target named is CLK4 (Homo sapiens (Human), UniProt Q9HAZ1). The experiment is described as follows: scanMAX Kinase assay panel. The experiment is classed as binding. The following applies: read-out: % control. The method in brief:
as §1

The target of the next experiment is CLK3 (Homo sapiens (Human), UniProt P49761). The experiment is described as follows: scanMAX Kinase assay panel. The experiment is classed as binding. As to conditions: read-out: % control. An outline of the steps:
as §1

The target in the next experiment is DYRK1A (Homo sapiens (Human), UniProt Q13627). Put plainly: scanMAX Kinase assay panel. The experiment is classed as binding. As to conditions: read-out: % control. The method in brief: as §1

Structures are written as SMILES.

Chain of CLK1 (P49759 whole entry): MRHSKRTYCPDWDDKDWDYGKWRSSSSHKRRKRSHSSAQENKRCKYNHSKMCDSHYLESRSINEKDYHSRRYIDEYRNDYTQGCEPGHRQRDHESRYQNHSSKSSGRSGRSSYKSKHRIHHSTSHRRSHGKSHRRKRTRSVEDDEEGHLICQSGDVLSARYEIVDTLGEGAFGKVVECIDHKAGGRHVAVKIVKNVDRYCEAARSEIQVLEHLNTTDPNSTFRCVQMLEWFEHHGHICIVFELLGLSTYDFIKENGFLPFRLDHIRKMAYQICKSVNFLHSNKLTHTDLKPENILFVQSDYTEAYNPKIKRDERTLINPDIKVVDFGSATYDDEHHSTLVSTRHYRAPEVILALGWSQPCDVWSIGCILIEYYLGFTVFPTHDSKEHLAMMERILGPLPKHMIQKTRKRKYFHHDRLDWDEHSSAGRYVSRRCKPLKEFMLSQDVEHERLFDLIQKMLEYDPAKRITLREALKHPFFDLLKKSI
Chain of CLK4 (Q9HAZ1 whole entry): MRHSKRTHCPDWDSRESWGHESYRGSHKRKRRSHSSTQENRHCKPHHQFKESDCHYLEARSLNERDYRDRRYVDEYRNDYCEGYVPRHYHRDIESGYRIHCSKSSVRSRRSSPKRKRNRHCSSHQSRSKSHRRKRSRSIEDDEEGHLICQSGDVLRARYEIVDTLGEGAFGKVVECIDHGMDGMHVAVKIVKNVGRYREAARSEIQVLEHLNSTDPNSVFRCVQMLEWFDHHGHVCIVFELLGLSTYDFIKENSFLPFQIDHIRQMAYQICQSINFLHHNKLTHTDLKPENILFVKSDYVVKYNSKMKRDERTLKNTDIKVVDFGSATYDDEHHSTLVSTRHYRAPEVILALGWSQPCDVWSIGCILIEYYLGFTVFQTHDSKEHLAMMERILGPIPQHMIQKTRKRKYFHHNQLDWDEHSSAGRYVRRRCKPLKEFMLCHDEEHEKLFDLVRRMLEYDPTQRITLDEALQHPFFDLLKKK
Chain of CLK3 (P49761 whole entry): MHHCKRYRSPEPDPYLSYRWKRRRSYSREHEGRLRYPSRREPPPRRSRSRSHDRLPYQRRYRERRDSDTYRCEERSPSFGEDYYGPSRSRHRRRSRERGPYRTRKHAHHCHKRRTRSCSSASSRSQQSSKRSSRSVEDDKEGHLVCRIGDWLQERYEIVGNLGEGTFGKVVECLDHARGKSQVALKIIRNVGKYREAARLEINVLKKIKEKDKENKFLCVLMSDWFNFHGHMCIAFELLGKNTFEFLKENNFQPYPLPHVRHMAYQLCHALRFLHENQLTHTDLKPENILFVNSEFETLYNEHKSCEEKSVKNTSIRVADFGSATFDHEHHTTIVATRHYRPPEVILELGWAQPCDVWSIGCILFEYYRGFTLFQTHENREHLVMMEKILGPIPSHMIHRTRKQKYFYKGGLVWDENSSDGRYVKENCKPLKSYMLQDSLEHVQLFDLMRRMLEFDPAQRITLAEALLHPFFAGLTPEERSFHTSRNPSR
Chain of DYRK2 (Q92630 whole entry): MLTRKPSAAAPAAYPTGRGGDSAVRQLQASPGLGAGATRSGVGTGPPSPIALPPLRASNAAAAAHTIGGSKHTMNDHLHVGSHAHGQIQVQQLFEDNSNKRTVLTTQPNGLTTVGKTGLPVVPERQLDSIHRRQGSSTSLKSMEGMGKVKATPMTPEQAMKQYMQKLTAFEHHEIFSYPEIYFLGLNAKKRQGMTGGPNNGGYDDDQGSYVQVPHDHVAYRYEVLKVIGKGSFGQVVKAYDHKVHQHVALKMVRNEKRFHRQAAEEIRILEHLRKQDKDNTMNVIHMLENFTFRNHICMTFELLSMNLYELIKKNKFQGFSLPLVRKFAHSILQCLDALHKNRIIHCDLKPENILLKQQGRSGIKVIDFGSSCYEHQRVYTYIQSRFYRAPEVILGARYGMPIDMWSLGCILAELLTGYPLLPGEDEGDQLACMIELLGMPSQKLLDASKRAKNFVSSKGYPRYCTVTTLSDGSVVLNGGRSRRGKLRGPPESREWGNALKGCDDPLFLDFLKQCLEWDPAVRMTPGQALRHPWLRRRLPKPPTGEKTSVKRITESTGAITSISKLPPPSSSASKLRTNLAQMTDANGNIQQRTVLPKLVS
Chain of CSNK1E (P49674 whole entry): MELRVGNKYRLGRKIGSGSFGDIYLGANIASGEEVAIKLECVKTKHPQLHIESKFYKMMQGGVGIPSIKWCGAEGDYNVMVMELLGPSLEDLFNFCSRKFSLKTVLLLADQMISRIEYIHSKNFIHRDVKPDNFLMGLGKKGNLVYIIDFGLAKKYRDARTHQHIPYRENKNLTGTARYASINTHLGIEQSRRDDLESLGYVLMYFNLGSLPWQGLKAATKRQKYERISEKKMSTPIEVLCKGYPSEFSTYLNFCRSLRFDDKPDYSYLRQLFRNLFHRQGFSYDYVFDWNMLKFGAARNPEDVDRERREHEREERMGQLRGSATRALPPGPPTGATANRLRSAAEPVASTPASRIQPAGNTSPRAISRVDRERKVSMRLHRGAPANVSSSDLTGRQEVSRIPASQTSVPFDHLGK
Chain of DYRK1B (Q9Y463 whole entry): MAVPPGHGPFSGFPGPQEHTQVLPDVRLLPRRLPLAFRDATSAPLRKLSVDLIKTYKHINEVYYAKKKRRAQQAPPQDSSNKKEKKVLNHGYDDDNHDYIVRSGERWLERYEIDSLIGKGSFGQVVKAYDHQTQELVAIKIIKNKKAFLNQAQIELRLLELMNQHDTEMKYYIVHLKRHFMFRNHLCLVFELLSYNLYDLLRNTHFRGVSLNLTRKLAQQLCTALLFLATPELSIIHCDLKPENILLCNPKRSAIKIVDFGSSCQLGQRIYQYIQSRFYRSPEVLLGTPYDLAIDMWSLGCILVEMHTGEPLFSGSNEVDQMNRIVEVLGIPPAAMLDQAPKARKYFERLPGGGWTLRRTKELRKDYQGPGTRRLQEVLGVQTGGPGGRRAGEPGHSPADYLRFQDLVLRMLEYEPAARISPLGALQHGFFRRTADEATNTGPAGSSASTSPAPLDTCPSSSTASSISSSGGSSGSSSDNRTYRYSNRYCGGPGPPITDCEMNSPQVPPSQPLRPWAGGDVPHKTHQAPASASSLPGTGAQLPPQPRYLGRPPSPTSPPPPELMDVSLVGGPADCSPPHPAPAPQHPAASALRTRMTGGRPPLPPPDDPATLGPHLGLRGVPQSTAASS

For the molecule `CCNc1cc(Nc2ccc(C(=O)N3CCC(N4CCOCC4)CC3)cc2OC)nc2[nH]cc(C(F)(F)F)c12` [Example 57, (4-((4-(ethylamino)-3-(trifluoromethyl)-1H-pyrrolo[2,3-b]pyridin-6-yl)amino)-3-methoxyphenyl) (4-morpholinopiperidin-1-yl)methanone], in the experiment with 5× FAD mice [1], the “immunoreactivity of AT180 in the cerebral cortex region” value is on record as “no significant change” and the “immunoreactivity of AT180 in the hippocampus” value is given as “significantly reduced”. Besides, the “short term memory (Y-maze alternation behavior)” value in the experiment on 5× FAD mice [2] was “improved short term memory”. For the same molecule, in the experiment on mouse pancreatic β-cell (Ki-67/insulin double-stained cells, 72 hours), the “increase of the cell number” value is reported as 5 times. Besides, the cell proliferation result in the experiment on mouse pancreatic β-cell (mouse pancreatic β-cells cultured with compound for 72 hours) is recorded as “active”. In addition, in the experiment on 5× FAD mice [3], the “long term memory (preference for the new object)” value is on record as “improved long term memory”.

For `CCNc1cc(Nc2ccc(C(=O)N3CCC(N4CCOCC4)CC3)cc2OC)nc2[nH]cc(C#N)c12` [Example 18, 4-(ethylamino)-6-((2-methoxy-4-(4-morpholinopiperidine-1-carbonyl)phenyl)amino)-1H-pyrrolo[2,3-b]pyridine-3-carbonitrile], the remaining binding at 1 µM on CLK2 is 8.5%; on DYRK1B, 4%; on CDK5, 100%; at CLK1 it was 1.9%; at GSK3B, 97%; on CSNK1E, 0.6%. The remaining binding at 1 µM at DYRK2 is 14%; on CLK4, 4%; on CLK3, 73%; on DYRK1A it was 2%.

For the origin of these results see US11117892B2, “Pyrrolo-pyridine derivative compound, method for preparing same, and pharmaceutical composition containing same as active ingredient for prevention or treatment of protein kinase-related diseases” (DAEGU-GYEONGBUK MEDICAL INNOVATION FOUNDATION, priority 2017, dated 2021).
